System: Or-Prnp transgenic mice
Settings: mouse, in vivo, 4 mg/kg

Question: How did the “abnormal waves in electrocardiogram after administration of heart stimulant” value turn out when `CN1[C@@H]2CC[C@H]1C[C@@H](OC(=O)C(CO)c1ccccc1)C2` (stereo partly shown) [atropine] was run?
Answer: only Or-Prnp transgenic mice showed the abnormal waves in electrocardiogram
